ChEMBL document CHEMBL1201862, “PubChem BioAssay data set” (2004)
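Test compounds were applied to cells in 96-well plates for 48 hours at 5 doses. At the GI50, growth is halved.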 Activity calls are given as the source filed them. Cut-off read from the data, not from the text of the source: active = GI50 up to about 1.1 µM and inactive = higher.

Tests used:
Test in all cases: growth of human tumour cells (NCI), 48 h
[1] = tested on: 786-0
[2] = tested on: A498
[3] = tested on: A549
[4] = tested on: ACHN
[5] = tested on: BT-549
[6] = tested on: CCRF-CEM
[7] = tested on: DU-145
[8] = tested on: EKVX
[9] = tested on: HCC 2998
[10] = tested on: HCT-116
[11] = tested on: HCT-15
[12] = tested on: HL-60
[13] = tested on: HOP-62
[14] = tested on: HOP-92
[15] = tested on: HT-29
[16] = tested on: Hs-578T
[17] = tested on: IGROV-1
[18] = tested on: K562
[19] = tested on: KM12
[20] = tested on: M14
[21] = tested on: MCF7
[22] = tested on: MDA-MB-231
[23] = tested on: MDA-MB-435
[24] = tested on: MDA-N
[25] = tested on: MOLT-4
[26] = tested on: Malme-3M
[27] = tested on: NCI-H226
[28] = tested on: NCI-H23
[29] = tested on: NCI-H460
[30] = tested on: NCI/ADR-RES
[31] = tested on: OVCAR-3
[32] = tested on: OVCAR-5
[33] = tested on: OVCAR-8
[34] = tested on: PC-3
[35] = tested on: RXF 393
[36] = tested on: SF-268
[37] = tested on: SF-295
[38] = tested on: SF-539
[39] = tested on: SK-MEL-28
[40] = tested on: SK-MEL-2
[41] = tested on: SK-MEL-5
[42] = tested on: SK-OV-3
[43] = tested on: SN12C
[44] = tested on: SNB-19
[45] = tested on: SR
[46] = tested on: SW-620
[47] = tested on: T47D
[48] = tested on: TK-10
[49] = tested on: U-251
[50] = tested on: UACC-62
[51] = tested on: UO-31
[52] = tested on: CAKI-1
[53] = tested on: COLO 205
[54] = tested on: LOX IMVI
[55] = tested on: OVCAR-4
[56] = tested on: RPMI-8226
[57] = tested on: SNB-75
[58] = tested on: UACC-257
[59] = tested on: NCI-H522

COC(=O)[C@@]1(C)CCC[C@]2(C(=O)O)C3Cc4occc4[C@H](C)[C@@H]3CCC21 (stereo not given in full)
GI50 [1]: 73.1 µM (inactive)
GI50 [2]: 68.7 µM (inactive)
GI50 [3]: 38.5 µM (inactive)
GI50 [4]: 44.2 µM (inactive)
GI50 [5]: 91.6 µM (inactive)
GI50 [6]: 22.3 µM (inactive)
GI50 [7]: 44.2 µM (inactive)
GI50 [8]: 39.1 µM (inactive)
GI50 [9]: 30.2 µM (inactive)
GI50 [10]: 35.2 µM (inactive)
GI50 [11]: > 10 µM
GI50 [12]: 41.1 µM (inactive)
GI50 [13]: 34 µM (inactive)
GI50 [14]: 29.4 µM (inactive)
GI50 [15]: 29 µM (inactive)
GI50 [16]: 29.4 µM (inactive)
GI50 [17]: 44.6 µM (inactive)
GI50 [18]: 29.2 µM (inactive)
GI50 [19]: 49.3 µM (inactive)
GI50 [20]: 76.4 µM (inactive)
GI50 [21]: > 10 µM (inactive)
GI50 [22]: > 100 µM (inactive)
GI50 [23]: 80.5 µM (inactive)
GI50 [24]: 75.9 µM (inactive)
GI50 [25]: 29.2 µM (inactive)
GI50 [26]: 34.5 µM (inactive)
GI50 [27]: 84.3 µM (inactive)
GI50 [28]: > 100 µM (inactive)
GI50 [29]: 33.8 µM (inactive)
GI50 [30]: 25.6 µM (inactive)
GI50 [31]: > 100 µM (inactive)
GI50 [32]: > 100 µM (inactive)
GI50 [33]: 68.1 µM (inactive)
GI50 [34]: 23.7 µM (inactive)
GI50 [35]: 51.1 µM (inactive)
GI50 [36]: > 100 µM (inactive)
GI50 [37]: 33.6 µM (inactive)
GI50 [38]: 42.9 µM (inactive)
GI50 [39]: > 100 µM (inactive)
GI50 [40]: 51.2 µM (inactive)
GI50 [41]: 89.1 µM (inactive)
GI50 [42]: 56.1 µM (inactive)
GI50 [43]: 28.9 µM (inactive)
GI50 [44]: 71.1 µM (inactive)
GI50 [45]: 59.7 µM (inactive)
GI50 [46]: 36 µM (inactive)
GI50 [47]: 40.6 µM (inactive)
GI50 [48]: 41 µM (inactive)
GI50 [49]: 31.1 µM (inactive)
GI50 [50]: 62.5 µM (inactive)
GI50 [51]: 42.7 µM (inactive)

Cc1cc(S(=O)(=O)n2ccnc2Oc2cccc(Cl)c2)c(SSc2cc(Cl)c(C)cc2S(=O)(=O)n2ccnc2Oc2cccc(Cl)c2)cc1Cl
GI50 [1]: 6.79 µM (inactive)
GI50 [2]: 12.2 µM (inactive)
GI50 [3]: 7.06 µM (inactive)
GI50 [4]: 8.36 µM (inactive)
GI50 [5]: 4.3 µM (inactive)
GI50 [52]: 10.9 µM (inactive)
GI50 [6]: 2.81 µM (inactive)
GI50 [53]: 2.57 µM (inactive)
GI50 [7]: 5.32 µM (inactive)
GI50 [8]: 4 µM (inactive)
GI50 [9]: 20.7 µM (inactive)
GI50 [10]: 6.19 µM (inactive)
GI50 [11]: 8.67 µM
GI50 [12]: 4.18 µM (inactive)
GI50 [13]: 9.57 µM (inactive)
GI50 [14]: 4.39 µM (inactive)
GI50 [15]: 7.83 µM (inactive)
GI50 [16]: 4.19 µM (inactive)
GI50 [17]: 8.13 µM (inactive)
GI50 [18]: 9.93 µM (inactive)
GI50 [19]: 5.66 µM (inactive)
GI50 [54]: 30 µM (inactive)
GI50 [20]: 7.89 µM (inactive)
GI50 [21]: 3.21 µM (inactive)
GI50 [22]: 12.4 µM (inactive)
GI50 [23]: 5.65 µM (inactive)
GI50 [24]: 8.38 µM (inactive)
GI50 [25]: 4.14 µM (inactive)
GI50 [26]: 5.74 µM (inactive)
GI50 [27]: 6.37 µM (inactive)
GI50 [28]: 6.32 µM (inactive)
GI50 [29]: 7.8 µM (inactive)
GI50 [30]: 3.1 µM (inactive)
GI50 [31]: 8.02 µM (inactive)
GI50 [55]: 9.57 µM (inactive)
GI50 [32]: 10.4 µM (inactive)
GI50 [33]: 6.59 µM (inactive)
GI50 [34]: 6.11 µM (inactive)
GI50 [56]: 2.67 µM (inactive)
GI50 [35]: 3.08 µM (inactive)
GI50 [36]: 7.43 µM (inactive)
GI50 [37]: 4.19 µM (inactive)
GI50 [38]: 4.54 µM (inactive)
GI50 [39]: 14.1 µM (inactive)
GI50 [40]: 7.66 µM (inactive)
GI50 [41]: 3.42 µM (inactive)
GI50 [42]: 12.4 µM (inactive)
GI50 [43]: 8.87 µM (inactive)
GI50 [57]: 7.59 µM (inactive)
GI50 [45]: 9.06 µM (inactive)
GI50 [46]: 11.7 µM (inactive)
GI50 [47]: 2.98 µM (inactive)
GI50 [48]: 29 µM (inactive)
GI50 [49]: 3.18 µM (inactive)
GI50 [58]: 8.09 µM (inactive)
GI50 [50]: 5.7 µM (inactive)
GI50 [51]: 5.96 µM (inactive)

O=c1[nH]c(Nc2ccc(Br)c(C(F)(F)F)c2)nc2[nH]cnc12
GI50 [1]: 40.1 µM (inactive)
GI50 [2]: 33.4 µM (inactive)
GI50 [3]: 72.1 µM (inactive)
GI50 [4]: 43.4 µM (inactive)
GI50 [5]: 62.7 µM (inactive)
GI50 [52]: 50 µM (inactive)
GI50 [6]: 43.8 µM (inactive)
GI50 [53]: 20.8 µM (inactive)
GI50 [7]: 55 µM (inactive)
GI50 [8]: 80.2 µM (inactive)
GI50 [9]: 17.9 µM (inactive)
GI50 [10]: 48.4 µM (inactive)
GI50 [11]: 76 µM
GI50 [12]: 26 µM (inactive)
GI50 [13]: 48.8 µM (inactive)
GI50 [14]: 26.4 µM (inactive)
GI50 [15]: 27.6 µM (inactive)
GI50 [16]: 13.1 µM (inactive)
GI50 [17]: 40.4 µM (inactive)
GI50 [19]: 29 µM (inactive)
GI50 [54]: 39.1 µM (inactive)
GI50 [20]: 30.5 µM (inactive)
GI50 [21]: 51.5 µM (inactive)
GI50 [22]: 63.8 µM (inactive)
GI50 [23]: 30.7 µM (inactive)
GI50 [24]: 34.4 µM (inactive)
GI50 [25]: 32 µM (inactive)
GI50 [26]: 38.8 µM (inactive)
GI50 [27]: 47.5 µM (inactive)
GI50 [28]: 38.5 µM (inactive)
GI50 [29]: 45.2 µM (inactive)
GI50 [59]: 18.5 µM (inactive)
GI50 [30]: > 100 µM (inactive)
GI50 [31]: 31.8 µM (inactive)
GI50 [55]: 47.1 µM (inactive)
GI50 [32]: 32.3 µM (inactive)
GI50 [33]: 42.9 µM (inactive)
GI50 [34]: 37.7 µM (inactive)
GI50 [56]: 47.3 µM (inactive)
GI50 [36]: 28.5 µM (inactive)
GI50 [37]: 54.1 µM (inactive)
GI50 [38]: 34.5 µM (inactive)
GI50 [39]: 36.6 µM (inactive)
GI50 [40]: 20.2 µM (inactive)
GI50 [41]: 29.9 µM (inactive)
GI50 [42]: 45.1 µM (inactive)
GI50 [43]: 43.3 µM (inactive)
GI50 [44]: 39.6 µM (inactive)
GI50 [57]: 25.6 µM (inactive)
GI50 [45]: 37.1 µM (inactive)
GI50 [46]: 57.9 µM (inactive)
GI50 [47]: 32.7 µM (inactive)
GI50 [48]: 83.9 µM (inactive)
GI50 [49]: 36.1 µM (inactive)
GI50 [58]: 82 µM (inactive)
GI50 [50]: 23.8 µM (inactive)
GI50 [51]: 43.9 µM (inactive)
